One experiment has as its target PI3K β (Homo sapiens (Human), UniProt P42338). The experiment can be described thus: PI3-Kinase Promega ADP-Glo Max assay. It is filed as biochemical. Background: ADP-Glo first removes unused ATP, then detects ADP through luciferase.
A further experiment deals with PI3K γ (Homo sapiens (Human), UniProt P48736). The experiment can be described thus: PI3-Kinase Promega ADP-Glo Max assay. Type of experiment: biochemical.
The next experiment deals with PI3K δ (Homo sapiens (Human), UniProt O00329). The experiment can be described thus: PI3-Kinase Promega ADP-Glo Max assay. It is filed as biochemical.
The target of another experiment is PI3K-δ in RAJI cells (Homo sapiens (Human), UniProt O00329). Nature of the experiment: RAJI p110 δ assay (PI3K-δ selective cellular assay, phospho-AKT). It is filed as cell-based. To be noted: phospho-AKT; read-out: RAJI p110 δ assay IC50.
In the next experiment the target is PI3K α (Homo sapiens (Human), UniProt P42336). The experiment can be described thus: PI3-Kinase Promega ADP-Glo Max assay. It is filed as biochemical.
In experiment [1] the target is PI3K-γ in RAW264.7 macrophages (Mus musculus (Mouse), UniProt Q9JHG7). The experiment can be described thus: Raw264.7 p110 γ assay (PI3K-γ selective cellular assay, C5a-stimulated phospho-AKT). It is filed as cell-based. The following applies: for IC50: phospho-AKT, read-out: Raw264.7 p110 γ assay IC50.
Description: Briefly, serum-starved RAW264.7 cells are stimulated with a known GPCR agonist C5a. […] Cells can be treated with test compounds prior to, simultaneously with, or subsequent to the stimulation by C5a. RAW 264.7 cells respond to the complement component fragment C5a through activation of the C5a receptor, and the C5a receptor activates macrophages and induces cell migration.

We go through 15 compounds from patent US9775844B2, “Heterocyclic compounds and uses thereof” (Infinity Pharmaceuticals, Inc., priority 2014, dated 2017).

Sequence of PI3K β (P42338 whole entry): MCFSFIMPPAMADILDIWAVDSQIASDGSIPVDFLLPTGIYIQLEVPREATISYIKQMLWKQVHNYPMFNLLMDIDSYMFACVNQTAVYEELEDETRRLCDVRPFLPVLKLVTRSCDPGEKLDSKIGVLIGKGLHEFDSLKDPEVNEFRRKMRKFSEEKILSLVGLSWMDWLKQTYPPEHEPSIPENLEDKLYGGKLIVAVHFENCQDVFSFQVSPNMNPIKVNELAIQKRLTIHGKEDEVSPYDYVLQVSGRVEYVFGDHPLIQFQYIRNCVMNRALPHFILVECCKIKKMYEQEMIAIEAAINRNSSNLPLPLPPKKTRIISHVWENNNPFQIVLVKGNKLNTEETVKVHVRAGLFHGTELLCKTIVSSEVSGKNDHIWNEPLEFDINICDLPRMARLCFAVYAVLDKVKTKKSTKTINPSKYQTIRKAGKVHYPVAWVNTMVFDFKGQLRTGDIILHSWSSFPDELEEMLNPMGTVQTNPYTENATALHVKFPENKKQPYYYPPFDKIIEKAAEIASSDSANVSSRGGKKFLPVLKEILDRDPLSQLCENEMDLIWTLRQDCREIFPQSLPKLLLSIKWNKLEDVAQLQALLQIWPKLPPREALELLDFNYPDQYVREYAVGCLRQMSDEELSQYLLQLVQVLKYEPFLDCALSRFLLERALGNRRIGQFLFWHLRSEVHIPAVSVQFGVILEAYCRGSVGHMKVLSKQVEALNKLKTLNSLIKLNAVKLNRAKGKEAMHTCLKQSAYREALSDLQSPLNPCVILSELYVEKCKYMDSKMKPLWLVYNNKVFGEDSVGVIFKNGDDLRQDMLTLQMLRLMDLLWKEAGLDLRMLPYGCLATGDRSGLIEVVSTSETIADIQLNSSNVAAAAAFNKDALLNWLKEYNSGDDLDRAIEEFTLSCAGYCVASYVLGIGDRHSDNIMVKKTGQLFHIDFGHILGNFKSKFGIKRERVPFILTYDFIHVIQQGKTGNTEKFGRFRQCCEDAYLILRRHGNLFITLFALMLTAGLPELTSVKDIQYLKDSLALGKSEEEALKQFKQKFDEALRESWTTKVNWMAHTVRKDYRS
Sequence of PI3K β (P27986 whole entry partner): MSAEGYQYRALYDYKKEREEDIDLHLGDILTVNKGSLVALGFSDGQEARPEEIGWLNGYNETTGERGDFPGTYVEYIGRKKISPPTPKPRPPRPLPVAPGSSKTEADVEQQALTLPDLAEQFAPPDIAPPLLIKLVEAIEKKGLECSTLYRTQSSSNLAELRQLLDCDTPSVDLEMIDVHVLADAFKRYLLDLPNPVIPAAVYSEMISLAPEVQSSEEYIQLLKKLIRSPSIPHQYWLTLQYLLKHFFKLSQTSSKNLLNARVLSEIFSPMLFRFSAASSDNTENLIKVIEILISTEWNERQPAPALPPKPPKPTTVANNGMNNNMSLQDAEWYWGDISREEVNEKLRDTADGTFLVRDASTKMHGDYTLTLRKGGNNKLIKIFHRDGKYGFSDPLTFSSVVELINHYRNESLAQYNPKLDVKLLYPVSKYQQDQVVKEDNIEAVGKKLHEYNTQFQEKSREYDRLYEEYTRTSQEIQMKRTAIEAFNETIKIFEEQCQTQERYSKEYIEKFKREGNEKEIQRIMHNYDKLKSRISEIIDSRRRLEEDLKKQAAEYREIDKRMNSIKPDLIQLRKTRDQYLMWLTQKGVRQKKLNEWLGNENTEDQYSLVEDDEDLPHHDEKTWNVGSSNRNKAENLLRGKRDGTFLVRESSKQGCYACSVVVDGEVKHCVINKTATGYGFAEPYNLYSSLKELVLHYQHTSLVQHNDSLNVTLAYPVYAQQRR
Sequence of PI3K α (P42336 whole entry): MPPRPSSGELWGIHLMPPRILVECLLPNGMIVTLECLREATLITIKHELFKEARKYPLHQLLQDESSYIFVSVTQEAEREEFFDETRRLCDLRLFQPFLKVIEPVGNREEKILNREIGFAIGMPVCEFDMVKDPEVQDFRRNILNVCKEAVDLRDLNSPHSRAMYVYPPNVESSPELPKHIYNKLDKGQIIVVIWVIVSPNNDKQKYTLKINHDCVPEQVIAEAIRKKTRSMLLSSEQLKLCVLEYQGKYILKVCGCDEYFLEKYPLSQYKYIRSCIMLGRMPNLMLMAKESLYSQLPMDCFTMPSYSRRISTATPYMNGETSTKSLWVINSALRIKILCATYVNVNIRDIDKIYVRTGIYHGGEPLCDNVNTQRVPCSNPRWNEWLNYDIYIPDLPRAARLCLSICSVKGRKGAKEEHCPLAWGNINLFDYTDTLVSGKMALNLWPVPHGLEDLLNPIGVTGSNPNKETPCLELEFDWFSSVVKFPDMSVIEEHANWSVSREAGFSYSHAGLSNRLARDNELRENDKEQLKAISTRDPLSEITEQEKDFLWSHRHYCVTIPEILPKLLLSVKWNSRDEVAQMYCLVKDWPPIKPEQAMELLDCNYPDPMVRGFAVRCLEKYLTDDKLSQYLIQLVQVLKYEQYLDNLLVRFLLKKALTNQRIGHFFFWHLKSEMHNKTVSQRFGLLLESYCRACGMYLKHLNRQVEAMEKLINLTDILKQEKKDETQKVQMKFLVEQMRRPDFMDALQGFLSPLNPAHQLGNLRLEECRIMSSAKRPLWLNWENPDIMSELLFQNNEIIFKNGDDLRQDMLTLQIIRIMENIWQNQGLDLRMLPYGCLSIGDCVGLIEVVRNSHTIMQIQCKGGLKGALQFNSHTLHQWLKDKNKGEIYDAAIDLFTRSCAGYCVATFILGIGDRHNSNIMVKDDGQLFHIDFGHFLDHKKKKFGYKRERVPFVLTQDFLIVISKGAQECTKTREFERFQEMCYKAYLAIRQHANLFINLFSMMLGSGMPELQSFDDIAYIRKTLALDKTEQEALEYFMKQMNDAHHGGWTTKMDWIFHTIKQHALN
Sequence of PI3K α (P27986 whole entry partner): as the sequence (P27986 whole entry partner) above
Sequence of PI3K-γ in RAW264.7 macrophages (Q9JHG7 whole entry): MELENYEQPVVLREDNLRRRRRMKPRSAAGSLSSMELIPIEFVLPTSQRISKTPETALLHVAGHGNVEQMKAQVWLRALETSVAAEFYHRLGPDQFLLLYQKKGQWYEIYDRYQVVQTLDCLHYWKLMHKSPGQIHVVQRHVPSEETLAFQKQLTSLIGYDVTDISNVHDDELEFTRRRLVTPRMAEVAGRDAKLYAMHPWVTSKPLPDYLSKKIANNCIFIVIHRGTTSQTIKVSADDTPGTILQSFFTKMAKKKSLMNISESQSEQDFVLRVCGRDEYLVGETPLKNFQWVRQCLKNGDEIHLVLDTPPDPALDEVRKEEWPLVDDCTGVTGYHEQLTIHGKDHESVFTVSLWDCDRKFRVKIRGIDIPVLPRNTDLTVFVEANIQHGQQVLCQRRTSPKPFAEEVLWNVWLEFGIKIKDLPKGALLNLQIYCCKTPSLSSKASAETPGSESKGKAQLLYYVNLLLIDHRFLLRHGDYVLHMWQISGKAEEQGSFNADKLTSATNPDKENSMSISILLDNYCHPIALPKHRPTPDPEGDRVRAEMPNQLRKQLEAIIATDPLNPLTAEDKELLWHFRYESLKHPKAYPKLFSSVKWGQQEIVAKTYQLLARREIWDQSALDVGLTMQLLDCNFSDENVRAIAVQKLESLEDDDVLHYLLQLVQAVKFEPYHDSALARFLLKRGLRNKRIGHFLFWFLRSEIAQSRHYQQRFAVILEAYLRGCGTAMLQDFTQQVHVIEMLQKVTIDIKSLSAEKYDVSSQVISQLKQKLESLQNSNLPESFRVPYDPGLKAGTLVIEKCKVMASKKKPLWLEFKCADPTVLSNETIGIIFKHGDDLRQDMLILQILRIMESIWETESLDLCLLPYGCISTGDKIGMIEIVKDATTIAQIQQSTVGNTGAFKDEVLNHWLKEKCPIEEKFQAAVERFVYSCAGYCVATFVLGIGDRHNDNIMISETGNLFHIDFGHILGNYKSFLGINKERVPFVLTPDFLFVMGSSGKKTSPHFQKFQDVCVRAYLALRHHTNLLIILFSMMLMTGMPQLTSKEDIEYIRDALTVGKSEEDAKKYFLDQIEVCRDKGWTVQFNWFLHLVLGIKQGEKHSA
Sequence of PI3K γ (P48736 whole entry): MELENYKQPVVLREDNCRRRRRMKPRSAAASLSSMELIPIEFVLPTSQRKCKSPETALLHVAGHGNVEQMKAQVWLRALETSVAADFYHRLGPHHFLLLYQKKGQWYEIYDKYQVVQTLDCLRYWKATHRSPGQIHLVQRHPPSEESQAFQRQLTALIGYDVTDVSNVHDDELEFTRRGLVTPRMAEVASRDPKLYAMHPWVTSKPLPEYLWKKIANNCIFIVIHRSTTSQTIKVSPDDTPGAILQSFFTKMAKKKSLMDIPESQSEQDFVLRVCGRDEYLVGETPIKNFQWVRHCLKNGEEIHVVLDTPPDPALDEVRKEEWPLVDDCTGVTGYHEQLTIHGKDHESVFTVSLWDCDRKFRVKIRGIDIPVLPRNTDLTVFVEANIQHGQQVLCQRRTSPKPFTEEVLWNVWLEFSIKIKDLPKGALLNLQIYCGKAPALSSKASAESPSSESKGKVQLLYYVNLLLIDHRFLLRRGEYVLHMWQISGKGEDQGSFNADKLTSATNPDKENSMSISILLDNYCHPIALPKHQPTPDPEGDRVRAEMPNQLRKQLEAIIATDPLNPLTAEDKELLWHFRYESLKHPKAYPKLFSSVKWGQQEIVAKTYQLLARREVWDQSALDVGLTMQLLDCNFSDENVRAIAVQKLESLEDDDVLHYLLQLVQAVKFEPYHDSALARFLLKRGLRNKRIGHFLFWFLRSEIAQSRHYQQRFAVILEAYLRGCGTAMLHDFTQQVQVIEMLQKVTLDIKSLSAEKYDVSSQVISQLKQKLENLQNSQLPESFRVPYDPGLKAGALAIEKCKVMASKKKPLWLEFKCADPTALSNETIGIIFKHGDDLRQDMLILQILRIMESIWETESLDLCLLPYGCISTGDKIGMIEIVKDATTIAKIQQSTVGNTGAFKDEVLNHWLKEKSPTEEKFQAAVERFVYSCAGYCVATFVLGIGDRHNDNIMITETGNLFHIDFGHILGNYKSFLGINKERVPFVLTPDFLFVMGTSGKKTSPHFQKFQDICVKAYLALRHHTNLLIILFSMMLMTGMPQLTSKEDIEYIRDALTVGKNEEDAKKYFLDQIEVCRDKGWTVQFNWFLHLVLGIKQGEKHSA
Protocol for PI3K β: Promega ADP-Glo Max assay kit (Cat. No. V7002) was utilized to determine IC50 values for α, β, δ and γ isoforms of human Class I PI3 kinases (Millipore). […] Reactions were incubated at room temperature for 2 hours followed by addition of 25 uL of stop solution. After a 40-minute incubation at room temperature, 50 uL of Promega detection mix was added followed by incubation for 1 hour at room temperature. Plates were then read on Envision plate reader in lunimescence mode. Data was converted to % inhibition using the following equation below:
[formula] where S is the sample luminescence, Pos is a positive control without added PI3K, Neg is the negative control without added compound. Data was then plotted as % inhibition vs compound concentration.

One may read the IC50 as the concentration that inhibits the measured activity by half. With `CC(C)C#Cc1cccc2cc([C@H](C)NC(=O)c3c(N)nn4cccnc34)n(-c3ccccc3)c(=O)c12` [Compound 2], the IC50 against PI3K β was 5000 to 10000 nM; on PI3K γ it was 500 to 1000 nM; at PI3K δ it was 5000 to 10000 nM; on PI3K-δ in RAJI cells, 500 to 1000 nM; at PI3K α, 5000 to 10000 nM; in experiment [1], 1 to 50 nM. The “PI3K δ/PI3K γ IC50 (selectivity)” value at PI3K γ was “X (X = 10 to <50)”. The “RAJIδ/Raw264.7 γ IC50 (selectivity)” value in experiment [1] was “Y (Y = 50 to <850)”.

Turning to `C[C@H](NC(=O)c1c(N)nn2cccnc12)c1cc2cccc(C#CC(C)(C)C)c2c(=O)n1-c1ccccc1` [Compound 3], the IC50 against PI3K β fell in the range of 5000 to 10000 nM; against PI3K γ, 1000 to 5000 nM; against PI3K δ, 5000 to 10000 nM; at PI3K-δ in RAJI cells it was 1000 to 10000 nM; at PI3K α, 5000 to 10000 nM; in experiment [1], 50 to 100 nM. Moreover, on PI3K γ, the “PI3K δ/PI3K γ IC50 (selectivity)” value was “W (W = >1 to <10)”. Besides, in experiment [1], the “RAJIδ/Raw264.7 γ IC50 (selectivity)” value is reported as “X (X = 10 to <50)”.

For the compound `C[C@H](NC(=O)c1c(N)nn2cccnc12)c1cc2cccc(C#Cc3ccccc3)c2c(=O)n1-c1ccccc1` [Compound 5], the IC50 on PI3K β was 5000 to 10000 nM; against PI3K γ it was 1000 to 5000 nM; against PI3K δ it was 1 to 500 nM; at PI3K-δ in RAJI cells, 1 to 100 nM; against PI3K α, 5000 to 10000 nM; in experiment [1] it was 1 to 50 nM. In addition, on PI3K γ, the “PI3K δ/PI3K γ IC50 (selectivity)” value is listed as “V (V = 0.1 to 1)”. Further, the “RAJIδ/Raw264.7 γ IC50 (selectivity)” value in experiment [1] is recorded as “W (W = >1 to <10)”.

As for `COc1ccc(C#Cc2cccc3cc([C@H](C)NC(=O)c4c(N)nn5cccnc45)n(-c4ccccc4)c(=O)c23)cn1` [Compound 6], the IC50 lay in the range of 5000 to 10000 nM at PI3K β; 100 to 500 nM at PI3K γ; 5000 to 10000 nM on PI3K δ; 500 to 1000 nM at PI3K-δ in RAJI cells; 5000 to 10000 nM at PI3K α; 1 to 50 nM in experiment [1]. At PI3K γ, the “PI3K δ/PI3K γ IC50 (selectivity)” value was “Y (Y = 50 to <850)”. Further, the “RAJIδ/Raw264.7 γ IC50 (selectivity)” value in experiment [1] is recorded as “X (X = 10 to <50)”.

As to `C[C@H](NC(=O)c1c(N)nn2cccnc12)c1cc2cccc(C#Cc3cncn3C)c2c(=O)n1-c1ccccc1` [Compound 7], the IC50 at PI3K β was in the range of 5000 to 10000 nM; against PI3K γ it was 100 to 500 nM; against PI3K δ, 5000 to 10000 nM; on PI3K-δ in RAJI cells it was 500 to 1000 nM; against PI3K α, 5000 to 10000 nM; in experiment [1], 1 to 50 nM. Moreover, the “PI3K δ/PI3K γ IC50 (selectivity)” value on PI3K γ was “Y (Y = 50 to <850)”. Further, the “RAJIδ/Raw264.7 γ IC50 (selectivity)” value in experiment [1] was “Y (Y = 50 to <850)”.

Take `C[C@H](NC(=O)c1c(N)nn2cccnc12)c1cc2cccc(C#CC(C)(C)N)c2c(=O)n1-c1ccccc1` [Compound 8]: the IC50 lay in the range of 5000 to 10000 nM against PI3K β; 500 to 1000 nM against PI3K γ; 5000 to 10000 nM against PI3K δ; 1000 to 10000 nM on PI3K-δ in RAJI cells; 5000 to 10000 nM at PI3K α; 100 to 10000 nM in experiment [1]. Moreover, the “PI3K δ/PI3K γ IC50 (selectivity)” value on PI3K γ was “X (X = 10 to <50)”. Besides, the “RAJIδ/Raw264.7 γ IC50 (selectivity)” value in experiment [1] is given as “W (W = >1 to <10)”.

Regarding `C[C@H](NC(=O)c1c(N)nn2cccnc12)c1cc2cccc(C#CC3CC3)c2c(=O)n1-c1ccccc1` [Compound 9], the IC50 was 1000 to 5000 nM against PI3K β; 100 to 500 nM at PI3K γ; 1000 to 5000 nM at PI3K δ; 100 to 500 nM at PI3K-δ in RAJI cells; 1000 to 5000 nM against PI3K α; 1 to 50 nM in experiment [1]. For the same compound, the “PI3K δ/PI3K γ IC50 (selectivity)” value at PI3K γ is “X (X = 10 to <50)”. Besides, the “RAJIδ/Raw264.7 γ IC50 (selectivity)” value in experiment [1] was “Y (Y = 50 to <850)”.

With `C[C@H](NC(=O)c1c(N)nn2cccnc12)c1cc2cccc(C#CCN3CCOCC3)c2c(=O)n1-c1ccccc1` [Compound 10], the IC50 was in the range of 5000 to 10000 nM against PI3K β; 100 to 500 nM on PI3K γ; 5000 to 10000 nM on PI3K δ; 1000 to 10000 nM on PI3K-δ in RAJI cells; 5000 to 10000 nM against PI3K α; 1 to 50 nM in experiment [1]. In addition, the “PI3K δ/PI3K γ IC50 (selectivity)” value on PI3K γ is listed as “X (X = 10 to <50)”. Moreover, the “RAJIδ/Raw264.7 γ IC50 (selectivity)” value in experiment [1] was “X (X = 10 to <50)”.

As to `C[C@H](NC(=O)c1c(N)nn2cccnc12)c1cc2cccc(C#CC(C)(C)O)c2c(=O)n1-c1ccccc1` [Compound 11], the half-maximal inhibitory concentration (IC50) against PI3K β is 5000 to 10000 nM; at PI3K γ it was 100 to 500 nM; against PI3K δ, 5000 to 10000 nM; at PI3K-δ in RAJI cells it was 1000 to 10000 nM; against PI3K α it was 5000 to 10000 nM; in experiment [1] it was 50 to 100 nM. Also, at PI3K γ, the “PI3K δ/PI3K γ IC50 (selectivity)” value is reported as “X (X = 10 to <50)”. The “RAJIδ/Raw264.7 γ IC50 (selectivity)” value in experiment [1] is listed as “X (X = 10 to <50)”.

In the case of `COCC#Cc1cccc2cc([C@H](C)NC(=O)c3c(N)nn4cccnc34)n(-c3ccccc3)c(=O)c12` [Compound 12], the IC50 lay in the range of 1000 to 5000 nM on PI3K β; 1 to 100 nM against PI3K γ; 1000 to 5000 nM against PI3K δ; 100 to 500 nM at PI3K-δ in RAJI cells; 5000 to 10000 nM on PI3K α; 1 to 50 nM in experiment [1]. Besides, the “PI3K δ/PI3K γ IC50 (selectivity)” value on PI3K γ is on record as “X (X = 10 to <50)”. For the same compound, the “RAJIδ/Raw264.7 γ IC50 (selectivity)” value in experiment [1] was “X (X = 10 to <50)”.

As to `C[C@H](NC(=O)c1c(N)nn2cccnc12)c1cc2cccc(C#CCO)c2c(=O)n1-c1ccccc1` [Compound 13], the IC50 at PI3K β was 1000 to 5000 nM; against PI3K γ, 1 to 100 nM; against PI3K δ, 500 to 1000 nM; on PI3K-δ in RAJI cells it was 1 to 100 nM; at PI3K α it was 5000 to 10000 nM; in experiment [1] it was 1 to 50 nM. The “PI3K δ/PI3K γ IC50 (selectivity)” value on PI3K γ is listed as “X (X = 10 to <50)”. Further, the “RAJIδ/Raw264.7 γ IC50 (selectivity)” value in experiment [1] was “W (W = >1 to <10)”.

On to `C[C@H](NC(=O)c1c(N)nn2cccnc12)c1cc2cccc(C#CCN3CCCC3=O)c2c(=O)n1-c1ccccc1` [Compound 14], for which the IC50 against PI3K β was in the range of 1000 to 5000 nM; at PI3K γ, 1 to 100 nM; on PI3K δ, 1 to 500 nM; on PI3K-δ in RAJI cells, 1 to 100 nM; at PI3K α, 1000 to 5000 nM; in experiment [1], 1 to 50 nM. Moreover, at PI3K γ, the “PI3K δ/PI3K γ IC50 (selectivity)” value is “X (X = 10 to <50)”. Also, in experiment [1], the “RAJIδ/Raw264.7 γ IC50 (selectivity)” value was “W (W = >1 to <10)”.

Take `C[C@H](NC(=O)c1c(N)nn2cccnc12)c1cc2cccc(C#C[C@@H](C)O)c2c(=O)n1-c1ccccc1` [Compound 15]: the IC50 against PI3K β fell in the range of 5000 to 10000 nM; at PI3K γ, 1 to 100 nM; against PI3K δ, 500 to 1000 nM; on PI3K-δ in RAJI cells, 100 to 500 nM; against PI3K α, 5000 to 10000 nM; in experiment [1] it was 1 to 50 nM. Besides, at PI3K γ, the “PI3K δ/PI3K γ IC50 (selectivity)” value is “X (X = 10 to <50)”. Further, the “RAJIδ/Raw264.7 γ IC50 (selectivity)” value in experiment [1] is given as “W (W = >1 to <10)”.

In the case of `C[C@H](O)C#Cc1cccc2cc([C@H](C)NC(=O)c3c(N)nn4cccnc34)n(-c3ccccc3)c(=O)c12` [Compound 16], the IC50 on PI3K β lay in the range of 1000 to 5000 nM; on PI3K γ, 1 to 100 nM; at PI3K δ, 1000 to 5000 nM; on PI3K-δ in RAJI cells it was 100 to 500 nM; against PI3K α, 5000 to 10000 nM; in experiment [1], 1 to 50 nM. Also, the “PI3K δ/PI3K γ IC50 (selectivity)” value at PI3K γ is listed as “Y (Y = 50 to <850)”. Moreover, in experiment [1], the “RAJIδ/Raw264.7 γ IC50 (selectivity)” value is “X (X = 10 to <50)”.

For the compound `C[C@H](NC(=O)c1c(N)nn2cccnc12)c1cc2cccc(C#Cc3cccnc3)c2c(=O)n1-c1ccccc1` [Compound 17], the IC50 against PI3K β was 5000 to 10000 nM; against PI3K γ, 100 to 500 nM; at PI3K δ it was 5000 to 10000 nM; on PI3K-δ in RAJI cells, 100 to 500 nM; at PI3K α it was 5000 to 10000 nM; in experiment [1], 1 to 50 nM. Also, the “PI3K δ/PI3K γ IC50 (selectivity)” value at PI3K γ was “Y (Y = 50 to <850)”. In experiment [1], the “RAJIδ/Raw264.7 γ IC50 (selectivity)” value is given as “Y (Y = 50 to <850)”.
